Experimental data from the supplement of paper PMC10307832.

Columns and labels:
Experiment in all cases: relative viability (nuclei count vs DMSO), 5 days (fraction); higher = more cells survive
[1] = compound: N#CC[C@H](C1CCCC1)n1cc(-c2ncnc3[nH]ccc23)cn1 [Ruxolitinib] + C[C@]1(O)C[C@@H](c2nc(-c3ccc4ccc(-c5ccccc5)nc4c3)c3c(N)nccn32)C1 [Linsitinib] (partner 1 µM)
Outline: (§1)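 Relative viability was taken as the ratio of nuclei in treated wells to nuclei in vehicle wells. Lung cancer cell lines in 1536-well plates received compounds by pin tool one day after seeding, either one drug alone or a fixed anchor-drug dose plus five library-drug doses (not always all listed) in √10 steps. Nuclei were counted on 4× images after 5 days of treatment, and values are medians of duplicate plates.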

[2] = compound: CS(=O)(=O)c1ccc(C(=O)Nc2ccc(Cl)c(-c3ccccn3)c2)c(Cl)c1 [Vismodegib] + CS(=O)(=O)CCNCc1ccc(-c2ccc3ncnc(Nc4ccc(OCc5cccc(F)c5)c(Cl)c4)c3c2)o1 [Lapatinib] (partner 2 µM)
Outline: as §1

[3] = compound: CS(=O)(=O)c1ccc(-c2cnc(N)c(C(=O)Nc3ccccc3)n2)cc1 [VE-821] + CS(=O)(=O)N1CCN(Cc2cc3nc(-c4cccc5[nH]ncc45)nc(N4CCOCC4)c3s2)CC1 [Pictilisib] (partner 1 µM)
Outline: as §1

[4] = compound: N#CC[C@H](C1CCCC1)n1cc(-c2ncnc3[nH]ccc23)cn1 [Ruxolitinib] + CC1(C)CCC(c2ccc(Cl)cc2)=C(CN2CCN(c3ccc(C(=O)NS(=O)(=O)c4ccc(N[C@H](CCN5CCOCC5)CSc5ccccc5)c(S(=O)(=O)C(F)(F)F)c4)cc3)CC2)C1 [Navitoclax] (partner 0.5 µM)
Outline: as §1

Cell Line | relative viability ([1]; first compound 0.08 µM) | relative viability ([1]; first compound 0.253 µM) | relative viability ([1]; first compound 0.8 µM) | relative viability ([1]; first compound 2.53 µM) | relative viability ([1]; first compound 8 µM) | relative viability ([2]; first compound 0.08 µM) | relative viability ([2]; first compound 0.253 µM) | relative viability ([2]; first compound 0.8 µM) | relative viability ([2]; first compound 2.53 µM) | relative viability ([2]; first compound 8 µM) | relative viability ([3]; first compound 0.08 µM) | relative viability ([3]; first compound 0.253 µM) | relative viability ([3]; first compound 0.8 µM) | relative viability ([3]; first compound 2.53 µM) | relative viability ([3]; first compound 8 µM) | relative viability ([4]; first compound 0.08 µM) | relative viability ([4]; first compound 0.253 µM) | relative viability ([4]; first compound 0.8 µM) | relative viability ([4]; first compound 2.53 µM) | relative viability ([4]; first compound 8 µM)
NCI-H1734 | 0.852 | 0.752 | 0.794 | 0.8 | 0.821 | 1.04 | 1.02 | 0.96 | 0.957 | 1 | 0.453 | 0.47 | 0.433 | 0.527 | 0.36 | 0.749 | 0.698 | 0.899 | 0.724 | 0.785
PC-3 [JPC-3] | 0.882 | 0.973 | 0.973 | 0.963 | 0.872 | 0.486 | 0.467 | 0.394 | 0.447 | 0.475 | 0.784 | 0.797 | 0.851 | 0.938 | 0.763 | 0.69 | 0.771 | 0.771 | 0.757 | 0.73
HCC-827 | – | 1.03 | 0.913 | 0.972 | 0.803 | 0.162 | 0.163 | 0.185 | 0.192 | 0.214 | 1.1 | 1.03 | 1.19 | 1.24 | 1.19 | – | 0.863 | 0.908 | 0.857 | 0.845
NCI-H2405 | – | 0.779 | 1.1 | 0.528 | 0.632 | – | 1.09 | 0.937 | 0.913 | 1.11 | 0.468 | 0.388 | 0.431 | 0.446 | 0.355 | – | 0.771 | 1.28 | 0.456 | 0.471
HOP-62 | – | 0.995 | 1.05 | 0.991 | 0.867 | 0.981 | 0.891 | 0.934 | 1.04 | 0.926 | 0.689 | 0.785 | 0.807 | 0.944 | 0.516 | 1.02 | 1.17 | 1.11 | 1 | 1.11
LCLC-97TM1 | 0.195 | 0.151 | 0.189 | 0.22 | 0.219 | – | – | 0.663 | – | 1.03 | 0.178 | 0.203 | 0.229 | 0.224 | 0.137 | 0.459 | 0.384 | 0.537 | 0.492 | 0.354
NCI-H3122 | 1.09 | 1.06 | 1.02 | 0.815 | 1.04 | 0.987 | 1.06 | 0.982 | 0.897 | 0.936 | 0.666 | 0.672 | 0.563 | 0.765 | 0.78 | 1.04 | 1.03 | 0.981 | 0.923 | 0.963
PC-14 | – | 0.959 | 1.04 | 0.794 | 0.69 | 0.273 | 0.338 | 0.29 | 0.337 | 0.337 | 0.91 | 0.734 | 0.708 | 0.759 | 0.74 | – | 1.03 | 1.01 | 0.927 | 0.723
HCC-366 | 0.595 | 0.401 | 0.647 | 0.535 | 0.541 | 1.08 | 1.01 | 1.1 | 1.01 | 1 | 0.152 | 0.252 | 0.0721 | 0.127 | 0.101 | 1.14 | 1.05 | 1.05 | 0.965 | 0.993
HARA | 0.983 | 1.01 | 1.03 | 0.912 | 0.815 | 0.858 | 0.713 | 0.662 | 0.797 | 0.634 | 0.509 | 0.294 | 0.408 | 0.401 | 0.477 | 1.14 | 1.11 | 1.17 | 1.14 | 1.25
COR-L 105 | 0.95 | 0.719 | 0.912 | 0.642 | 0.758 | 0.36 | 0.38 | 0.392 | 0.363 | 0.337 | 0.46 | 0.392 | 0.402 | 0.405 | 0.38 | 0.707 | 0.701 | 0.89 | 0.694 | 0.515
NCI-H1395 | – | 0.998 | 1.08 | 0.945 | 1.01 | 1.06 | 0.899 | 0.855 | 0.927 | 1.18 | 0.568 | 0.67 | 0.652 | 0.605 | 0.599 | – | 0.993 | 1.17 | 1.13 | 0.944
EMC-BAC-2 | 0.799 | 0.822 | 0.87 | 0.744 | 0.66 | 0.891 | 0.857 | 0.839 | 0.933 | 0.9 | 0.548 | 0.528 | 0.583 | 0.593 | 0.552 | 1.11 | 1.13 | 1.18 | 1.09 | 1.06
NCI-H1666 | 0.739 | 0.949 | 0.933 | 0.776 | 0.902 | 0.72 | 0.616 | 0.453 | 0.558 | 0.879 | 0.516 | 0.365 | 0.399 | 0.441 | 0.403 | 0.876 | 1.01 | 1.1 | 0.759 | 1.07
H3255 | 0.464 | 0.887 | 1.17 | 0.706 | 0.86 | 0.244 | 0.24 | 0.239 | 0.268 | 0.239 | 0.583 | 0.553 | 0.549 | 0.454 | 0.568 | 0.248 | 0.393 | 0.474 | 0.423 | 0.425
NCI-H1793 | 0.632 | 0.92 | 1.04 | 1.12 | 0.968 | – | 0.667 | 0.658 | 0.671 | 0.676 | 0.356 | 0.312 | 0.273 | 0.431 | 0.425 | 0.494 | 0.374 | 0.486 | 0.621 | 0.266
NCI-H1755 | 1 | 0.961 | 0.971 | 0.9 | 0.817 | 1 | 1 | 1.06 | 1.02 | 1.04 | 0.509 | 0.359 | 0.416 | 0.418 | 0.363 | 0.919 | 0.925 | 1 | 0.844 | 0.732
